Converted amounts (≈) assume the structure as drawn. “Also recorded” adds a separate entry of the source.
Experiments:
[1] = system: MraY, WecA, AglH, and DPAGT1; assay: Phosphotransferase panel; format: biochemical; details: at 50 μM concentration
[2] = system: HPNE; assay: MTT cytotoxicity assay, HPNE; format: cell-based; details: HPNE, 72 h, read-out: IC50 HPNE
[3] = mouse; ref [10],[18]; cited from earlier work
[4] = system: DPAGT1; details: ref [10]; cited from earlier work
[5] = system: normal cells / cancer cells; details: selected solid cancer cell lines; ref [10]; cited from earlier work
[6] = system: cancer and healthy cell lines; assay: Cytotoxicity across cell-line panel; format: cell-based
[7] = system: MraY/MurX; details: read-out: IC50 MraY; previously identified; ref [9]; cited from earlier work
[8] = system: PD002; assay: MTT cytotoxicity assay, PD002; format: cell-based, human; details: Homo sapiens, PD002, 72 h, read-out: IC50 PD002
[9] = system: PD002; assay: Checkerboard synergy of CPPB with paclitaxel; format: cell-based, human; details: for CA and CB, concentration in combination: growth–no growth interface
[10] = molecular target: DPAGT1 (Human) (Homo sapiens, UniProt Q9H3H5); assay: DPAGT1 assay; format: biochemical
DPAGT1 (Human), sequence (Q9H3H5 whole entry): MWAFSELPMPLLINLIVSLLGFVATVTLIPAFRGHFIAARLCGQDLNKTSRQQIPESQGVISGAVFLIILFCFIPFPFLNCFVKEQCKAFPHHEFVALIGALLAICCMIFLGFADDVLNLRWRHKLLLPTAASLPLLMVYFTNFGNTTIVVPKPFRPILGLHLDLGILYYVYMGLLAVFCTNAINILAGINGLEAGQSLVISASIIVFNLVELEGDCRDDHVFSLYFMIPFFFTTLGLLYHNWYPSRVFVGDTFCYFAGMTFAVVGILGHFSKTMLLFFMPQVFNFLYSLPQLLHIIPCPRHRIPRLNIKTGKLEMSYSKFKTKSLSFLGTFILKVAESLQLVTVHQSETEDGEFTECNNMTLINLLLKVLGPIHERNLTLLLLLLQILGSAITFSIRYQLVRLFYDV

[11] = system: Myocobacterium tuberculosis H37Rv, Mycobacterium avium 2285, Mycobacterium smegmatis (ATCC607); assay: Antimycobacterial activity; format: cell-based, Mycobacterium spp.
[12] = system: PD002; assay: Kinetic proliferation assay; format: cell-based, human
[13] = system: PD002; assay: Scratch; format: cell-based, human; details: PD002, 24h, 0.2 μM; untreated 63%
[14] = system: HCT-116; assay: Scratch; format: cell-based; details: scratch assay
[15] = system: SiHa; assay: Scratch; format: cell-based, human; details: scratch assay, 0.2 μM
[16] = system: PD002; assay: Cell migration assay using transwell; format: cell-based, human; details: 0.1 μM, 18h; vs tunicamycin and gemcitabine at 0.1 μM
[17] = system: Snail; assay: Snail expression; format: cell-based; details: 0.05 and 2.0 μM
[18] = system: E-Cadherin; assay: E-Cadherin expression; format: cell-based
[19] = system: DPAGT1; assay: DPAGT1 protein expression; format: cell-based

CO[C@H]1[C@@H](O)[C@H](n2ccc(=O)[nH]c2=O)O[C@@H]1[C@@H](O[C@H]1OC(CNCc2ccc(N3CCC(Oc4ccc(OC(F)(F)F)cc4)CC3)cc2)=C[C@H](O)[C@@H]1O)C(N)=O [CPPA, (2R)-2-(((2S,3S,4S)-3,4-Dihydroxy-6-(((4-(4-(4-(trifluoromethoxy)phenoxy)piperidin-1-yl)benzyl)amino)methyl)-3,4-dihydro-2H-pyran-2-yl)oxy)-2-((2S,5R)-5-(2,4-dioxo-3,4-dihydropyrimidin-1(2H)-yl)-4-hydroxy-3-methoxytetrahydrofuran-2-yl)acetamide]
inhibition of all phosphotransferases tested in Table 1 [1]: did not inhibit

CO[C@H]1[C@@H](O)[C@H](n2ccc(=O)[nH]c2=O)O[C@@H]1[C@@H](O[C@H]1OC(C(=O)N[C@H]2CCCCNC2=O)=C[C@H](O)[C@@H]1O)C(N)=O [CAP, Capuramycin, reference compound]
IC50 [2]: > 50 µM

NC[C@H]1O[C@@H](O[C@H]([C@H]2O[C@@H](n3ccc(=O)[nH]c3=O)[C@H](O)[C@@H]2O)[C@H](NCCCC(=O)NCc2ccc(N3CCC(Oc4ccc(OC(F)(F)F)cc4)CC3)cc2)C(N)=O)[C@H](O)[C@@H]1O [APPB, Aminouridyl phenoxylpiperidinylbenzylbutanamide]
LD50 [3]: > 20 mg/kg
DPAGT1 inhibitory activity relative to tunicamycin [4]: greater than 30 times
selective cytotoxicity (IC50 normal cells / cancer cells) [5]: > 35

CO[C@H]1[C@@H](OC)[C@H](n2ccc(=O)[nH]c2=O)O[C@@H]1[C@@H](O[C@H]1OC(C(=O)N[C@H]2CCCCNC2=O)=C[C@H](O)[C@@H]1O)C(N)=O [OM-CAP, O-Methyl capuramycin]
IC50 [2]: > 50 µM
cytotoxicity against healthy cells (e.g., Vero and HPNE cells) ([6]; at 50 μM): does not show cytotoxicity
IC50 [7]: > 50 µM

CC(=O)O[C@H]1C(=O)[C@@]2(C)[C@H]([C@H](OC(=O)c3ccccc3)[C@]3(O)C[C@H](OC(=O)[C@H](O)[C@@H](NC(=O)c4ccccc4)c4ccccc4)C(C)=C1C3(C)C)[C@]1(OC(C)=O)CO[C@@H]1C[C@@H]2O [Paclitaxel, reference compound]
IC50 [8]: 1.25 µM
CA and CB, concentration in combination ([9]; Table 3 entry 1): 0.63 µM
CA and CB, concentration in combination ([9]; Table 3 entry 2): 0.16 µM
CA and CB, concentration in combination ([9]; Table 3 entry 3): 0.0049 µM
CA and CB, concentration in combination ([9]; Table 3 entry 4): 0.020 µM
CA and CB, concentration in combination ([9]; Table 3 entry 6): 0.020 µM

CO[C@@H]1[C@H](O)[C@@H]([C@@H](O[C@H]2OC(CNCc3ccc(N4CCC(Oc5ccc(OC(F)(F)F)cc5)CC4)cc3)=C[C@H](O)[C@@H]2O)C(N)=O)O[C@H]1n1ccc(=O)[nH]c1=O [I-CPPA, (2R)-2-(((2S,3S,4S)-3,4-Dihydroxy-6-(((4-(4-(4-(trifluoromethoxy)phenoxy)piperidin-1-yl)benzyl)amino)methyl)-3,4-dihydro-2H-pyran-2-yl)oxy)-2-((2S,5R)-5-(2,4-dioxo-3,4-dihydropyrimidin-1(2H)-yl)-3-hydroxy-4-methoxytetrahydrofuran-2-yl)acetamide]
inhibition of all phosphotransferases tested in Table 1 [1]: did not inhibit

CO[C@H]1[C@@H](O)[C@H](n2ccc(=O)[nH]c2=O)O[C@@H]1[C@@H](O[C@H]1OC(C(=O)NCc2ccc(N3CCC(Oc4ccc(OC(F)(F)F)cc4)CC3)cc2)=C[C@H](O)[C@@H]1O)C(N)=O [CPPB, (2S,3S,4S)-2-((1R)-2-Amino-1-((2S,5R)-5-(2,4-dioxo-3,4-dihydropyrimidin-1(2H)-yl)-4-hydroxy-3-methoxytetrahydrofuran-2-yl)-2-oxoethoxy)-3,4-dihydroxy-N-(4-(4-(4-(trifluoromethoxy)phenoxy)piperidin-1-yl)benzyl)-3,4-dihydro-2H-pyran-6-carboxamide]
DPAGT1 inhibitory activity relative to tunicamycin [10]: ~ 7.5 times
IC50 [2]: > 50 µM
MIC [11]: 6.25 to 12.5 µg/mL (≈ 7.74 to 15.5 µM)
phase area confluent of PD002 culture after 72h ([12]; CPPB 50 μM, same as time 0h, control (PBS) ca. 70%): 10–13%
cell proliferation inhibited at time 72h ([12]; PD002, CPPB 0.2–20 μM): ca. 20%
cell permeability ([12]; demonstrated by IncuCyte live cell analyses and immunofluorescence assays): cell-permeable
wound-healing rate [13]: approximately 20%
inhibition of cell migration of HCT-116 [14]: not inhibited; also recorded: did not inhibit migration
inhibition of migration of SiHa [15]: strongly inhibited migration
inhibition of cell migration of PD002 (Boyden chamber) [16]: inhibited on a higher level
Snail expression level in HCT-116 [17]: not noticeably changed
E-Cadherin expression level of PANC-1 ([18]; Western blot, 0–2.0 μM): the same expression level
E-Cadherin expression levels of PD002, PANC-1, and HCT-116 ([18]; immunofluorescence, 0.05–2.0 μM): not changed significantly
DPAGT1 expression in pancreatic cancer cell lines ([19]; 0.2 μM): apparently inhibited
DPAGT1 expression levels of HCT-116 remaining ([19]; Western blot, CPPB 0.1–20 μM): 20–90%
CA and CB, concentration in combination ([9]; Table 3 entry 1): 0.10 µM
CA and CB, concentration in combination ([9]; Table 3 entry 2): 0.10 µM
CA and CB, concentration in combination ([9]; Table 3 entry 3): 0.20 µM
CA and CB, concentration in combination ([9]; Table 3 entry 4): 0.20 µM
CA and CB, concentration in combination ([9]; Table 3 entry 5): 0.20 µM
CA and CB, concentration in combination ([9]; Table 3 entry 6): 2.0 µM
CA and CB, concentration in combination ([9]; Table 3 entry 7): 2.0 µM
CA and CB, concentration in combination ([9]; Table 3 entry 8): 2.0 µM
synergistic effect with paclitaxel against PD002 ([9]; checkerboard): strong synergistic effects
viability of all pancreatic cancers tested ([6]; MTT assays, 20 μM): remained viable
cytotoxicity against a series of cancer and healthy cell lines ([6]; at 10 μM or higher concentrations): not cytotoxic
antiproliferative activity against L1210, HPNE, and Vero ([6]; at 50 μM): did not show antiproliferative activity
IC50 ([6]; read-out: IC50 growth inhibition of solid cancer cell lines (span)): 15 to 45 µM

CO[C@@H]1[C@H](O)[C@@H]([C@@H](O[C@H]2OC(C(=O)NCc3ccc(N4CCC(Oc5ccc(OC(F)(F)F)cc5)CC4)cc3)=C[C@H](O)[C@@H]2O)C(N)=O)O[C@H]1n1ccc(=O)[nH]c1=O
growth inhibitory activity against Mycobacterium spp. ([11]; at 50 μg/mL): did not show growth inhibitory activity
antiproliferative activity against L1210, HPNE, and Vero ([6]; at 50 μM): did not show antiproliferative activity

Source: paper PMC7554145 (Journal of medicinal chemistry, 2020)
